Data published in ChEMBL document CHEMBL1201862, “PubChem BioAssay data set” (2004).
Activity calls are given as the source filed them.

Tests used:
[1] = molecular target: Ion channel NompC (Danio rerio, UniProt Q7T1G6); assay: Dose response cell-based high-throughput screening assay for agonists of the transient receptor potential channel N1 (TRPN1). [Related pubchem assays (depositor defined):AID1424, AID1448]; assay type: functional
[2] = molecular target: Mucolipin-3 (Homo sapiens, UniProt Q8TDD5); assay: Fluorescence counterscreen assay for […] agonists: dose response cell-based high-throughput screening assay to identify agonists of the transient receptor potential channel ML3 (TRPML3). [Related pubchem assays: 1424, 1448 ]; assay type: functional
[3] = molecular target: T1, Corticotropin-releasing factor receptor 2/Corticotropin-releasing factor-binding protein (Homo sapiens, UniProt P24387+Q13324); assay: activators of CRF receptor 2 with binding protein – uHTS hits, confirmation (AID 602473); assay type: functional; details: read-out: EC50_Mean
T1 sequence (Q13324 whole entry): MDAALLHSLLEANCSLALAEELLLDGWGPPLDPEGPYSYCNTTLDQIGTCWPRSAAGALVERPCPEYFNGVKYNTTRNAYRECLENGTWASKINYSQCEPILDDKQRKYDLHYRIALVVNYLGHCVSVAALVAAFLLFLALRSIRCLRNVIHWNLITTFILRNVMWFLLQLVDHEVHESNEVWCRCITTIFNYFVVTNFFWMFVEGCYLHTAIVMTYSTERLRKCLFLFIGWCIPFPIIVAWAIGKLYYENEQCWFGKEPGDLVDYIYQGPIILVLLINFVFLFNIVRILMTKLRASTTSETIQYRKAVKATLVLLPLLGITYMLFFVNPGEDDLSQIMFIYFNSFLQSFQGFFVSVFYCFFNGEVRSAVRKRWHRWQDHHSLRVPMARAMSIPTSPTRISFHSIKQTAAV
T1 sequence (P24387 whole entry): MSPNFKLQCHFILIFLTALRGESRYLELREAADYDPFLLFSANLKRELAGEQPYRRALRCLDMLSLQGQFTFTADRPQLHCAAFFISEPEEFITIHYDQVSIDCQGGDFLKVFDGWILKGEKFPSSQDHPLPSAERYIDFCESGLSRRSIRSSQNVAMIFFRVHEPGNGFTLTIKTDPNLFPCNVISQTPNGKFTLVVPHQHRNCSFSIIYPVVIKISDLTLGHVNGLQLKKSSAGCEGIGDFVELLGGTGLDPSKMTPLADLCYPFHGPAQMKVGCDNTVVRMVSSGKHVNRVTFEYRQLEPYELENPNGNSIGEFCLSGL

[4] = molecular target: Eukaryotic translation initiation factor 4E (Mus musculus, UniProt P63073); assay: blockers of eIF4G binding by eIF4E – biochemical, TR-FRET, dose response (AID 855); assay type: functional;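 also: potency for disrupting eIF4E binding to eIF4GI seen as loss of FRET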
[5] = molecular target: Induced myeloid leukemia cell differentiation protein Mcl-1 (Homo sapiens, UniProt Q07820); assay type: functional
[6] = molecular target: T2, Dual specificity protein phosphatase 3 (Homo sapiens, UniProt P51452); assay: VHR1 phosphatase inhibitors, biochemical (AID 1878)
[7] = molecular target: T3, Heat shock 70 kDa protein 1A (Homo sapiens, UniProt P0DMV8); assay: small-molecule inhibition of Hsp70 – biochemical, TR-FRET (AID 786)
[8] = molecular target: T4, Dual specificity protein phosphatase 6 (Rattus norvegicus, UniProt Q64346); assay: inhibition of rat DUSP6 enzyme activity – biochemical, in vitro, primary screen (AID 425)
T4 sequence (Q64346 whole entry): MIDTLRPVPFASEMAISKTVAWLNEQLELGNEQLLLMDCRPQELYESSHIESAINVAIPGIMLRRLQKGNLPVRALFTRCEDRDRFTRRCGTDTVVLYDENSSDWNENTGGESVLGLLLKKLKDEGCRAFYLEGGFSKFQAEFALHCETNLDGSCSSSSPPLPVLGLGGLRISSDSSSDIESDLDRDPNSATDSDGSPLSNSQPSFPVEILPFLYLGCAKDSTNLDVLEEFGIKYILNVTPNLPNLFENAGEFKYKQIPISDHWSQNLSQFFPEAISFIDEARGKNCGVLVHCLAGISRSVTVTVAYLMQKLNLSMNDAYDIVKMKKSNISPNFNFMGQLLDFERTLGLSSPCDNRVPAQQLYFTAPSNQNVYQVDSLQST

[9] = molecular target: T3, Heat shock 70 kDa protein 1A; assay: inhibition of Hsp70 binding activity – biochemical, fluorescence polarization, SAR follow-up (AID 1072)
[10] = molecular target: T2, Dual specificity protein phosphatase 3; assay: VHR1 phosphatase inhibitors, primary screen, biochemical, absorbance, uHTS (AID 1654)
[11] = molecular target: T3, Heat shock 70 kDa protein 1A; assay: small molecules displacing fluorescent ligand from Hsp70 – biochemical, fluorescence polarization, primary screen (AID 583)
[12] = molecular target: Mothers against decapentaplegic homolog 3 (Homo sapiens, UniProt P84022); assay: inhibitors of SMAD-driven TGF-beta signaling – dose response (AID 715); assay type: functional
[13] = molecular target: Likely tRNA 2'-phosphotransferase (Candida albicans (strain SC5314 / ATCC MYA-2876) (Yeast), UniProt Q5A7N4); assay: inhibition of Candida TPT1 enzyme activity – biochemical, fluorescence polarization, dose response (AID 2160)
[14] = molecular target: T5, Leucine aminopeptidase (Plasmodium falciparum 3D7, UniProt Q8IL11); assay: P. falciparum M17LAP inhibitors, primary screen, biochemical, fluorogenic H-Leu-NHMec substrate, 1536-well (AID 1619); assay type: functional
T5 sequence (Q8IL11 whole entry): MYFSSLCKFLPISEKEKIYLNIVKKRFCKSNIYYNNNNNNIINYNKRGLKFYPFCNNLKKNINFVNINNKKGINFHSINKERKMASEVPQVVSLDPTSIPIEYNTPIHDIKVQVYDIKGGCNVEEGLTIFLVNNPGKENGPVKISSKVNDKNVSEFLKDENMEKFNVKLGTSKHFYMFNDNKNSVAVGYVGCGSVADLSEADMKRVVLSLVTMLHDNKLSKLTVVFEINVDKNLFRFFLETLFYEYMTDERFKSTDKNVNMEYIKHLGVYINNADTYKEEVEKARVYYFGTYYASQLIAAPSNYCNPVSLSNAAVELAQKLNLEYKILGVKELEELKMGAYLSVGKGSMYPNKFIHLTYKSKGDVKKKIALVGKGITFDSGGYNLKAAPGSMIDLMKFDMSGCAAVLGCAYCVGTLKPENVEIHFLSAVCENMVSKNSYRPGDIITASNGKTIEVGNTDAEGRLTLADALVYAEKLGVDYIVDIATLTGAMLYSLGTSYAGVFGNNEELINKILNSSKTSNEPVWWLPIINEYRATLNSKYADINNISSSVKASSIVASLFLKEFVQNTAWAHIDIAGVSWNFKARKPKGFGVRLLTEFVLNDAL

[15] = molecular target: Guanyl-specific ribonuclease T1 (Aspergillus oryzae (strain ATCC 42149 / RIB 40), UniProt P00651); assay: inhibition of ribonuclease T1 activity – biochemical, fluorescence polarization, 1536-well, counter-screen for TPT1 inhibitor project, dose response (AID 2167)
[16] = molecular target: Cytochrome P450 2C9 (Homo sapiens, UniProt P11712); details: Potency
[17] = molecular target: T6, Runt-related transcription factor 1/Core-binding factor subunit beta (Homo sapiens, UniProt Q01196+Q13951); assay: Runt domain/CBFb-SMMHC interaction disruptors – biochemical, TR-FRET (AID 1438); assay type: protein assay
[18] = molecular target: T6, Runt-related transcription factor 1/Core-binding factor subunit beta; assay: disruptors of Runt domain/CBFb-SMMHC interaction – biochemical, FRET, Cerulean-Runt, Venus-CBFb-SMMHC, uHTS, […] (AID 1434); assay type: protein assay
[19] = molecular target: T7, Kappa-type opioid receptor (Homo sapiens, UniProt P41145); assay: SAR analysis of small molecule antagonists of the kappa opioid receptor via a luminescent beta-arrestin assay - Set 5. [Related pubchem assays (depositor defined):AID1778, AID1785]; assay type: functional
[20] = molecular target: T7, Kappa-type opioid receptor; assay: SAR analysis of small molecule antagonists of the kappa opioid receptor via a luminescent beta-arrestin assay - Set 4. [Related pubchem assays (depositor defined):AID1777, AID1778, AID1785, AID1786, AID1966, AID2133, AID2136, AID2285]; assay type: functional

T3 sequence (P0DMV8 whole entry): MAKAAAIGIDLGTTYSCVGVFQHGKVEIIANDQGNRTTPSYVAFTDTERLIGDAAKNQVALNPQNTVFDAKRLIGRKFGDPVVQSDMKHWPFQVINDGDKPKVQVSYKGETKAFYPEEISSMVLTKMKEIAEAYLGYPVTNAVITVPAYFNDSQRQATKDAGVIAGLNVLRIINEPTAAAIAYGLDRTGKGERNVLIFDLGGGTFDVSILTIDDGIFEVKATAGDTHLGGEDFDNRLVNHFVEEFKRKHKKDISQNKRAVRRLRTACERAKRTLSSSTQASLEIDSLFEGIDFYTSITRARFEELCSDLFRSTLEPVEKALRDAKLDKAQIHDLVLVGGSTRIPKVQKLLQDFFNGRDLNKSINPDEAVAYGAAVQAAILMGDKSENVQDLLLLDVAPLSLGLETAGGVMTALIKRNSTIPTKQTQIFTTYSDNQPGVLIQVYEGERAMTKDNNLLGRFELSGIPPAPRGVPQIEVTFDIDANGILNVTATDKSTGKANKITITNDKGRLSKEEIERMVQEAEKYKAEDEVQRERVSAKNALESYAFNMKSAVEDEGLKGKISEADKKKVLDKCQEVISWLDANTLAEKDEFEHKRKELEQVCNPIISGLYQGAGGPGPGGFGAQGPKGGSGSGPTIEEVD
T2 sequence (P51452 whole entry): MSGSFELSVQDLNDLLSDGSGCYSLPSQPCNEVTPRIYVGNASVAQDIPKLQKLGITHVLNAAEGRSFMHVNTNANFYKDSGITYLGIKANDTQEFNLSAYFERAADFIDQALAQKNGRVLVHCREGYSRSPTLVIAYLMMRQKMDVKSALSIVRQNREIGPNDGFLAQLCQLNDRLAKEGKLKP
T7 sequence (P41145 whole entry): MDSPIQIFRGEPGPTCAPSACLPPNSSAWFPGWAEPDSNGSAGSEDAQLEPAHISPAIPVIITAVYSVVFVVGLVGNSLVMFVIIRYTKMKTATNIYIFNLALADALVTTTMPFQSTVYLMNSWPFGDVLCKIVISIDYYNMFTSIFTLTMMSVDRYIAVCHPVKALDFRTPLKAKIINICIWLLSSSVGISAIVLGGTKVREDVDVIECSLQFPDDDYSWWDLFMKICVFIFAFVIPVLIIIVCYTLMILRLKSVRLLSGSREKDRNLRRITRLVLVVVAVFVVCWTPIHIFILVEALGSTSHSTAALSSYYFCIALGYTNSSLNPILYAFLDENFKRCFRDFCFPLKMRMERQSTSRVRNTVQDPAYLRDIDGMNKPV
T6 sequence (Q01196 whole entry, the tested form may be a part): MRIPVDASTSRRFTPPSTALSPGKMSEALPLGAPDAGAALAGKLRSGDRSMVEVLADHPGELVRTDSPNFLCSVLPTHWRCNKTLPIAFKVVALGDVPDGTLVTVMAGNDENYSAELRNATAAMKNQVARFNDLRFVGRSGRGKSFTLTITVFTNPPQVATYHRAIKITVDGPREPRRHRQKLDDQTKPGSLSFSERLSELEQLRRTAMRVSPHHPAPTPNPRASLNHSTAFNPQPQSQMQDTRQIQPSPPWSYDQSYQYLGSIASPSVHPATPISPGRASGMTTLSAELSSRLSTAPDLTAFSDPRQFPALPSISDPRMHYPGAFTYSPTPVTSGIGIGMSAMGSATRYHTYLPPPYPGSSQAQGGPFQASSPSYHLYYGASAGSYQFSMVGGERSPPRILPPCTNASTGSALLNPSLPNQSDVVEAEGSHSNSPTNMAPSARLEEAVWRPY
T6 sequence (Q13951 whole entry, the tested form may be a part): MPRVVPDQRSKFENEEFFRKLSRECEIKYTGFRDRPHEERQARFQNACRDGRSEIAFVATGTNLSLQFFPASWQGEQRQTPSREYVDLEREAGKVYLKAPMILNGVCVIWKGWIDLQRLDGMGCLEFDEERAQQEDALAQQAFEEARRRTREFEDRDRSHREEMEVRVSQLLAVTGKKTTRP
Likely tRNA 2'-phosphotransferase, sequence (Q5A7N4 whole entry): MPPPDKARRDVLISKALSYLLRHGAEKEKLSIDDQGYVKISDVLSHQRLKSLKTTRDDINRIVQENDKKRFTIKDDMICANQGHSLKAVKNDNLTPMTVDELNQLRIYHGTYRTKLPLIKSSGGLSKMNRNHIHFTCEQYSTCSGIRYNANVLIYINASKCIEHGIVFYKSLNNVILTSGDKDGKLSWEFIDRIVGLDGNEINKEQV
Induced myeloid leukemia cell differentiation protein Mcl-1, sequence (Q07820 whole entry): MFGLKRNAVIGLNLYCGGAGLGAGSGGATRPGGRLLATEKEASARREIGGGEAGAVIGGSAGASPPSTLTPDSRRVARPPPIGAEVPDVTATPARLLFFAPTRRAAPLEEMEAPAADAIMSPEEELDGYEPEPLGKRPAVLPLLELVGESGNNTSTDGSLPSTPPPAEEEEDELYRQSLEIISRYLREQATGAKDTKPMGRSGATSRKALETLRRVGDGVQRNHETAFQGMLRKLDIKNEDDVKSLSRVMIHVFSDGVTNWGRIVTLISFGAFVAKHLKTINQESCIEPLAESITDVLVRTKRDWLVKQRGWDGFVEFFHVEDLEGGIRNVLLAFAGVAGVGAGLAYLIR
Cytochrome P450 2C9, sequence (P11712 whole entry, the tested form may be a part): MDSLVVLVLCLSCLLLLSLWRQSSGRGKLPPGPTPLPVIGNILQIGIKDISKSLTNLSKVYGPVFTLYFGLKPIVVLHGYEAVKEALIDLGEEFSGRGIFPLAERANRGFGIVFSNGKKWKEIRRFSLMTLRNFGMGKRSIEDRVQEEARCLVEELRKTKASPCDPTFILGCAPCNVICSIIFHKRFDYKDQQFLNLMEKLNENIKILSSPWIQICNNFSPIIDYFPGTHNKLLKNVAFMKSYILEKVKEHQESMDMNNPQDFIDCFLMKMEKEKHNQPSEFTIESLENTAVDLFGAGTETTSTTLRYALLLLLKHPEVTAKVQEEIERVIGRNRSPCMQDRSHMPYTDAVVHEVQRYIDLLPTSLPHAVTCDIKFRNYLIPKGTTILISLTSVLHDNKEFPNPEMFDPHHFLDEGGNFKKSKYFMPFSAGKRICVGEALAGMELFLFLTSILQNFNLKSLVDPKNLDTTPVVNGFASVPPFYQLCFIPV
Guanyl-specific ribonuclease T1, sequence (P00651 whole entry): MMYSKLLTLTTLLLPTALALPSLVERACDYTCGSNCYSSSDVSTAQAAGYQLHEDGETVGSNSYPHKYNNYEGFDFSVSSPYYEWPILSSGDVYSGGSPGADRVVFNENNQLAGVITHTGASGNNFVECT
Eukaryotic translation initiation factor 4E, sequence (P63073 whole entry): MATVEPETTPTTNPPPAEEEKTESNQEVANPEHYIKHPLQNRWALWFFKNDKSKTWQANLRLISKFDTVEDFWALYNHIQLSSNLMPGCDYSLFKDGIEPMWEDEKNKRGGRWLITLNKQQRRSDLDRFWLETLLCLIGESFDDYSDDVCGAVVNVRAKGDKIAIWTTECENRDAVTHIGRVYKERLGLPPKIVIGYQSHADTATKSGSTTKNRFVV
Mothers against decapentaplegic homolog 3, sequence (P84022 whole entry): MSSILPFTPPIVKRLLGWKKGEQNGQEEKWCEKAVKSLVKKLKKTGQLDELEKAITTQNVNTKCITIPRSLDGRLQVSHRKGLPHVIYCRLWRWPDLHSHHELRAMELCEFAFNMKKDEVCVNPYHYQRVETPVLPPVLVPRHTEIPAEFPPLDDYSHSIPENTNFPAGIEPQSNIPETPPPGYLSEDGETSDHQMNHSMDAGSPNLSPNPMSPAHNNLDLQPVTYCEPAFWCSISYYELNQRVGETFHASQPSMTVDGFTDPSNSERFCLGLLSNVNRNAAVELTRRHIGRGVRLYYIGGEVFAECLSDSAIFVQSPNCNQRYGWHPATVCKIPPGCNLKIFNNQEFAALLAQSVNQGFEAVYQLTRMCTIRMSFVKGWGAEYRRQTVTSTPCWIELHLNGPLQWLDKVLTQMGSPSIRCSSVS
Mucolipin-3, sequence (Q8TDD5 whole entry): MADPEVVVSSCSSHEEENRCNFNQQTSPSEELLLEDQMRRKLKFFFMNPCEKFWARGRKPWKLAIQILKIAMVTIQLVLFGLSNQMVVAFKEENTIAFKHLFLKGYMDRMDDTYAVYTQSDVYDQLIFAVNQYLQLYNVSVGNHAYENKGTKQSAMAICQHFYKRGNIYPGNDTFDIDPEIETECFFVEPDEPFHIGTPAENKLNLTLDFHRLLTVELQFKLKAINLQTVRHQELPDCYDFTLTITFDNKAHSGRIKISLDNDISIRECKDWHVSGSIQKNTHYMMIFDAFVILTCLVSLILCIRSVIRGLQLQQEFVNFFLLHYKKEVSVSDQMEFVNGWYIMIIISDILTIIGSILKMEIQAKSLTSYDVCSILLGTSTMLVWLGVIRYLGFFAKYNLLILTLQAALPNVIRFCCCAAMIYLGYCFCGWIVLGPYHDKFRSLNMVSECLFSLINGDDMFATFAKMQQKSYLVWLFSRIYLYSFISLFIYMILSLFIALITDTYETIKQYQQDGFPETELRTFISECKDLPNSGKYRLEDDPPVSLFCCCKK

Question: Which results are given for `COc1cccc(CN2CCN(Cc3cc4ccccc4[nH]3)CC2CCO)c1` (stereo not given)?
Answer: EC50 [1]: 5.32 µM (active); EC50 [2]: 5.42 µM (active); EC50 [3]: 15.1 µM (active)

Question: Which results are given for `O=c1oc2c(O)c(O)cc3c(=O)oc4c(O)c(O)cc1c4c23` [ELLAGIC ACID]?
Answer: IC50 [4]: 47.7 µM (inactive); IC50 [5]: > 54 µM (active); IC50 [6]: < 1.23 µM (inactive); IC50 [7]: > 100 µM (not active); IC50 [8]: 39.5 µM (active); IC50 [9]: > 100 µM (not active); IC50 [10]: < 0.98 µM (inactive); IC50 [11]: 0.76 µM (active); IC50 [12]: 0.142 µM (active); IC50 [13]: 0.541 µM (active); IC50 [14]: 138 µM (active); IC50 [15]: > 55.7 µM (not active); AC50 [16]: 39.8 µM (inconclusive)

Question: `Cc1cc(O)ccc1Nc1nc2ccccc2nc1Nc1ccc(O)cc1C` was tested. Which IC50 [17] did it give?
Answer: 7.08 µM (active)

Question: And the IC50 [18]?
Answer: 9.73 µM (active)

Question: What does the source list for `CC(C)N(CCNC(=O)c1ccc(CNS(=O)(=O)c2ccc(C#N)cc2)cc1)Cc1ccccc1`?
Answer: IC50 [19]: 1.36 µM (active); IC50 [20]: 3.54 µM (active)
